Source: article PMC8815882, “Screening the pandemic response box identified benzimidazole carbamates, Olorofim and ravuconazole as promising drug candidates for the treatment of eumycetoma” (PLoS Neglected Tropical Diseases, 2022)
Like-named read-outs stand apart in the source and are kept apart here.

System: M. mycetomatis genome strain MM55
Assay: CLSI M38-A2 based in vitro susceptibility screening (XTT or resazurin), growth at fixed concentration
Type: cell-based, Madurella mycetomatis
Settings: Madurella mycetomatis; for Percent fungal survival at 100 µM: read-out: Percentage survival at 100um, 100 uM A (second replicate column)
[1] = mean of replicates, MM55, read-out: Percentage survival at 25um, 25 uM mean
[2] = replicate A, MM55, read-out: Percentage survival at 25um, 25 um A
[3] = replicate B, MM55, read-out: Percentage survival at 25um, 25 uM B
[4] = replicate C, MM55, read-out: Percentage survival at 25um, 25 uM C
[5] = mean of replicates, MM55, read-out: Percentage survival at 100um, 100 uM mean
[6] = replicate 1, MM55, read-out: Percentage survival at 100um, 100 uM A
[7] = replicate 2, MM55, read-out: Percentage survival at 100um, 100 uM A
[8] = replicate 3, MM55, read-out: Percentage survival at 100um, 100 uM A
[9] = mean of three, M. mycetomatis MM55, read-out: Percentage survival at 25um, 25 uM mean
[10] = replicate A, M. mycetomatis MM55, read-out: Percentage survival at 25um, 25 um A
[11] = replicate B, M. mycetomatis MM55, read-out: Percentage survival at 25um, 25 uM B
[12] = replicate C, M. mycetomatis MM55, read-out: Percentage survival at 25um, 25 uM C
[13] = mean of three, M. mycetomatis MM55, read-out: Percentage survival at 100um, 100 uM mean
[14] = replicate 1, M. mycetomatis MM55, read-out: Percentage survival at 100um, 100 uM A (first replicate column)
[15] = replicate 2, M. mycetomatis MM55
[16] = replicate 3, M. mycetomatis MM55, read-out: Percentage survival at 100um, 100 uM A (third replicate column)
[17] = mean of three replicates, read-out: Percentage survival at 25um, 25 uM mean
[18] = replicate A, read-out: Percentage survival at 25um, 25 um A
[19] = replicate B, read-out: Percentage survival at 25um, 25 uM B
[20] = replicate C, read-out: Percentage survival at 25um, 25 uM C
[21] = first replicate column, read-out: Percentage survival at 100um, 100 uM A
[22] = mean of three replicates, read-out: Percentage survival at 100um, 100 uM mean
[23] = second replicate column, read-out: Percentage survival at 100um, 100 uM A
[24] = third replicate column, read-out: Percentage survival at 100um, 100 uM A
[25] = replicate 1, read-out: Percentage survival at 100um, 100 uM A (first replicate column)
[26] = replicate 3, read-out: Percentage survival at 100um, 100 uM A (third replicate column)
[27] = mean of replicates, read-out: Percentage survival at 25um, 25 uM mean
[28] = mean of replicates, read-out: Percentage survival at 100um, 100 uM mean
[29] = replicate 1, read-out: Percentage survival at 100um, 100 uM A
[30] = replicate 2, read-out: Percentage survival at 100um, 100 uM A
[31] = replicate 3, read-out: Percentage survival at 100um, 100 uM A

CN(O)C(=O)c1cc2c(CN3CCC[C@H]3C(N)=O)cn(Cc3ccc(F)cc3)c2cn1 [MMV1782386]
activity at 25 µM [1]: 91.7%
activity at 25 µM [2]: 95%
activity at 25 µM [3]: 96.1%
activity at 25 µM [4]: 84%
activity at 100 µM [5]: 86%
activity at 100 µM [6]: 87.4%
activity at 100 µM [7]: 91.4%
activity at 100 µM [8]: 79.3%

C=C(C)[C@@H]1CC[C@]2(C(=O)O)CC[C@]3(C)[C@H](CC[C@@H]4[C@@]5(C)CC[C@H](O)C(C)(C)[C@@H]5CC[C@]43C)[C@@H]12 [MMV638198]
activity at 25 µM [1]: 78.4%
activity at 25 µM [2]: 65.7%
activity at 25 µM [3]: 92.3%
activity at 25 µM [4]: 77.1%
activity at 100 µM [5]: 79.4%
activity at 100 µM [6]: 83.2%
activity at 100 µM [7]: 80.2%
activity at 100 µM [8]: 74.7%

O=C(CSc1nnc(Br)n1-c1ccc(C2CC2)c2ccccc12)Nc1ccc(C(=O)O)cc1Cl [MMV1782213]
activity at 25 µM [1]: 81%
activity at 25 µM [2]: 93.7%
activity at 25 µM [3]: 82%
activity at 25 µM [4]: 67.3%
activity at 100 µM [5]: 74.5%
activity at 100 µM [6]: 63.5%
activity at 100 µM [7]: 115%
activity at 100 µM [8]: 45.2%

Cc1onc(-c2ccccc2Cl)c1C(=O)N[C@@H]1C(=O)N2[C@@H]1SC(C)(C)[C@@H]2C(=O)O [MMV002740]
activity at 25 µM [9]: 65.2%
activity at 25 µM [10]: 60.8%
activity at 25 µM [11]: 53.9%
activity at 25 µM [12]: 80.9%
activity at 100 µM [13]: 92.7%
activity at 100 µM [14]: 88.1%
Percent fungal survival at 100 µM [15]: 77.7%
activity at 100 µM [16]: 112%

COc1ccc(COc2cc3oc(=O)c4cc(C(C)O)ccc4c3cc2OC)cc1 (stereo not drawn) [MMV1580799]
activity at 25 µM [17]: 95.8%
activity at 25 µM [18]: 100%
activity at 25 µM [19]: 103%
activity at 25 µM [20]: 84.1%
activity at 100 µM [21]: 90.3%
activity at 100 µM [22]: 91.5%
activity at 100 µM [23]: 87.1%
activity at 100 µM [24]: 97%

CC(C)Cn1c(=O)n(C)c(=O)c2c(-c3cncn3C)n(Cc3cccc4ccccc34)nc21 [MMV1581559]
activity at 25 µM [17]: 58.5%
activity at 25 µM [18]: 82.8%
activity at 25 µM [19]: 69.9%
activity at 25 µM [20]: 22.7%
activity at 100 µM [22]: 3.57%
activity at 100 µM [25]: 1.05%
Percent fungal survival at 100 µM (replicate 2): 5.73%
activity at 100 µM [26]: 3.94%

NC(=O)c1cnc2ccc(S(=O)(=O)c3ccccc3)cc2c1Nc1ccc(O)cc1 [MMV1580848]
activity at 25 µM [9]: 78.8%
activity at 25 µM [10]: 86.9%
activity at 25 µM [11]: 78.3%
activity at 25 µM [12]: 71.3%
activity at 100 µM [13]: 83.2%
activity at 100 µM [14]: 89.3%
Percent fungal survival at 100 µM [15]: 86.1%
activity at 100 µM [16]: 74.3%

C[C@H](Cn1cnc2c(N)ncnc21)OCP(=O)(O)O [MMV1580478]
activity at 25 µM [17]: 99.2%
activity at 25 µM [18]: 98.1%
activity at 25 µM [19]: 110%
activity at 25 µM [20]: 89.5%
activity at 100 µM [21]: 94.5%
activity at 100 µM [22]: 89%
activity at 100 µM [23]: 87.6%
activity at 100 µM [24]: 84.8%

O=C(O)[C@H]1C2CCC(CC2)[C@@H]1Nc1nc(-c2c[nH]c3ncc(F)cc23)ncc1F [MMV1593516]
activity at 25 µM [17]: 97.3%
activity at 25 µM [18]: 98.8%
activity at 25 µM [19]: 105%
activity at 25 µM [20]: 88.2%
activity at 100 µM [21]: 107%
activity at 100 µM [22]: 98.7%
activity at 100 µM [23]: 103%
activity at 100 µM [24]: 86.5%

C[Si]1(C)CCN(Cc2cc(-c3ccc(Cl)cc3)n(-c3ccc(Cl)cc3)n2)CC1 [MMV1580843]
activity at 25 µM [1]: 67.7%
activity at 25 µM [2]: 56.5%
activity at 25 µM [3]: 86.3%
activity at 25 µM [4]: 60.2%
activity at 100 µM [5]: 57.4%
activity at 100 µM [6]: 52%
activity at 100 µM [7]: 70.7%
activity at 100 µM [8]: 49.4%

O=C(c1ccccc1)N1CCN(c2ccccc2NC(=O)C(Cl)(Cl)Cl)CC1 [MMV001014]
activity at 25 µM [27]: 76%
activity at 25 µM [18]: 69%
activity at 25 µM [19]: 93.3%
activity at 25 µM [20]: 65.7%
activity at 100 µM [28]: 78.9%
activity at 100 µM [29]: 98.3%
activity at 100 µM [30]: 71.3%
activity at 100 µM [31]: 67.2%

CCN(CC)S(=O)(=O)c1ccc(Cl)c(C(=O)Nc2sc3c(c2C#N)CCCC3)c1 [MMV1634384]
activity at 25 µM [27]: 89.4%
activity at 25 µM [18]: 87.9%
activity at 25 µM [19]: 80.1%
activity at 25 µM [20]: 100%
activity at 100 µM [28]: 89.5%
activity at 100 µM [29]: 89.4%
activity at 100 µM [30]: 89.9%
activity at 100 µM [31]: 89.3%

C[C@@H](NC(=O)c1cccc(-c2c[nH]c(-c3cc4ccccc4cn3)n2)c1)c1ccc(F)cc1 [MMV1782211]
activity at 25 µM [1]: 77%
activity at 25 µM [2]: 80.9%
activity at 25 µM [3]: 86%
activity at 25 µM [4]: 64.2%
activity at 100 µM [5]: 70%
activity at 100 µM [6]: 78.5%
activity at 100 µM [7]: 73.3%
activity at 100 µM [8]: 58.3%

COc1ccc(-n2cnc3cc(NCc4ccco4)ccc32)cc1 [MMV617332]
activity at 25 µM [17]: 61.8%
activity at 25 µM [18]: 70.4%
activity at 25 µM [19]: 107%
activity at 25 µM [20]: 7.47%
activity at 100 µM [21]: 18.3%
activity at 100 µM [22]: 7.71%
activity at 100 µM [23]: 3.66%
activity at 100 µM [24]: 1.23%

CC(=O)Nc1cc(NS(=O)(=O)c2ccc(Cl)cc2)cc2c(Cl)n[nH]c12 [MMV1579779]
activity at 25 µM [27]: 83.8%
activity at 25 µM [18]: 80.2%
activity at 25 µM [19]: 89.2%
activity at 25 µM [20]: 82.1%
activity at 100 µM [28]: 82.2%
activity at 100 µM [29]: 78.5%
activity at 100 µM [30]: 74.6%
activity at 100 µM [31]: 93.4%

C=CCN(C(=O)OCc1ccc([N+](=O)[O-])cc1)C1CCN(CC[C@](C)(CN(C)S(=O)(=O)c2ccccc2)c2ccccc2)CC1 [MMV1782214]
activity at 25 µM [1]: 69.4%
activity at 25 µM [2]: 79.7%
activity at 25 µM [3]: 66.7%
activity at 25 µM [4]: 61.9%
activity at 100 µM [5]: 62.1%
activity at 100 µM [6]: 55.9%
activity at 100 µM [7]: 76.9%
activity at 100 µM [8]: 53.4%

O=c1cc(Nc2ccc3ccccc3c2)[nH]c(=O)[nH]1 [MMV1581546]
activity at 25 µM [9]: 84.3%
activity at 25 µM [10]: 93.6%
activity at 25 µM [11]: 85%
activity at 25 µM [12]: 74.5%
activity at 100 µM [13]: 86%
activity at 100 µM [14]: 78.9%
Percent fungal survival at 100 µM [15]: 98.5%
activity at 100 µM [16]: 80.4%

CCc1c(OCC2CCC2)c2cc(F)ccc2[nH]c1=O [MMV1634395]
activity at 25 µM [17]: 67.1%
activity at 25 µM [18]: 59.4%
activity at 25 µM [19]: 71.5%
activity at 25 µM [20]: 70.4%
activity at 100 µM [21]: 62.9%
activity at 100 µM [22]: 55.6%
activity at 100 µM [23]: 45.1%
activity at 100 µM [24]: 58.8%

CC(C)(C)c1ccc(C(=O)NC(=O)N2CCCc3ccccc32)cc1 [MMV1782212]
activity at 25 µM (mean, read-out: Percentage survival at 25um, 25 uM mean): 78.4%
activity at 25 µM [18]: 90.3%
activity at 25 µM [19]: 74.4%
activity at 25 µM [20]: 70.6%
activity at 100 µM (mean, read-out: Percentage survival at 100um, 100 uM mean): 81.3%
activity at 100 µM (replicate (first column), read-out: Percentage survival at 100um, 100 uM A): 68.7%
activity at 100 µM (replicate (second column), read-out: Percentage survival at 100um, 100 uM A): 79.3%
activity at 100 µM (replicate (third column), read-out: Percentage survival at 100um, 100 uM A): 95.8%

Nc1cc(N)c2nc(-c3ccccc3)c(Nc3ccc(F)cc3)nc2c1 [MMV1581554]
activity at 25 µM [9]: 92.5%
activity at 25 µM [10]: 97.1%
activity at 25 µM [11]: 91.3%
activity at 25 µM [12]: 89.3%
activity at 100 µM [13]: 89.9%
activity at 100 µM [14]: 116%
Percent fungal survival at 100 µM [15]: 80.3%
activity at 100 µM [16]: 73.1%

O=C(NN1C(=O)[C@@H]2C3C=CC([C@H]4C[C@@H]34)[C@@H]2C1=O)c1ccc(C(F)(F)F)cc1 [MMV1782114]
activity at 25 µM [17]: 90.1%
activity at 25 µM [18]: 95.2%
activity at 25 µM [19]: 94.5%
activity at 25 µM [20]: 80.6%
activity at 100 µM [22]: 84.5%
activity at 100 µM [25]: 90%
Percent fungal survival at 100 µM (replicate 2): 78.4%
activity at 100 µM [26]: 85%
